Assay results reported in PubChem BioAssay (NCI).
Where “and” joins values, the source holds several entries; their conditions need not be identical. Equal entries are not always repeated.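 Results reflect a 48-hour exposure of cells in 96-well plates to compound at five concentrations. GI50 marks 50% less growth. TGI: concentration producing complete growth inhibition.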

Tests used:
Experiment in all cases: NCI anticancer screen, dose series, 48 h
OVCAR-4 ovarian = system: OVCAR-4 ovarian
UO-31 renal = system: UO-31 renal
UACC-62 melanoma = system: UACC-62 melanoma
UACC-257 melanoma = system: UACC-257 melanoma
HT29 colon = system: HT29 colon
SK-MEL-28 melanoma = system: SK-MEL-28 melanoma
IGROV1 ovarian = system: IGROV1 ovarian
SNB-19 CNS = system: SNB-19 CNS
HS 578T breast = system: HS 578T breast
NCI/ADR-RES ovarian = system: NCI/ADR-RES ovarian

Row | SMILES | TGI (OVCAR-4 ovarian) | TGI (UO-31 renal) | TGI (UACC-62 melanoma) | TGI (UACC-257 melanoma) | TGI (HT29 colon) | TGI (SK-MEL-28 melanoma) | TGI (IGROV1 ovarian) | TGI (SNB-19 CNS) | TGI (HS 578T breast) [µM] | GI50 (OVCAR-4 ovarian) | GI50 (UO-31 renal) | GI50 (UACC-62 melanoma) | GI50 (UACC-257 melanoma) [µM] | GI50 (HT29 colon) | GI50 (SK-MEL-28 melanoma) [µM] | GI50 (IGROV1 ovarian) | GI50 (SNB-19 CNS) | GI50 (HS 578T breast) | GI50 (NCI/ADR-RES ovarian) | TGI (NCI/ADR-RES ovarian)
1 | CNC(=S)OCCC(C)CCCC(C)C (centres undefined) | 30.9 µM | 20.7 µM | 29.1 µM | 30.1 µM | 31.3 µM | 41 µM | 31.7 µM | 33.4 µM |  |  |  |  |  |  |  |  |  |  |  | 
2 | CCOC(=O)CCC1(C(=O)OCC)CCCCC1=O (centres undefined) |  | > 100 µM |  | > 100 µM | > 100 µM | > 100 µM | > 100 µM | > 100 µM |  |  |  |  |  |  |  |  |  |  |  | 
3 | NS(=O)(=O)c1ccc2c(c1)OCCOCCOCCOCCO2 |  | > 100 µM | > 100 µM | > 100 µM | > 100 µM | > 100 µM | > 100 µM | > 100 µM | > 100 |  |  |  |  |  |  |  |  |  |  | 
4 | O=C(CCc1nc(=S)[nH][nH]1)Nc1cc(Cl)c(Cl)cc1Cl | > 100 µM | > 100 µM | > 100 µM | > 100 µM | > 100 µM | > 100 µM | > 100 µM | > 100 µM |  |  |  |  |  |  |  |  |  |  |  | 
5 | CN(C)N=Nc1ccc(C(N)=O)cc1 | > 100 µM | > 100 µM | > 100 µM | > 100 µM | > 100 µM | > 100 µM | > 100 µM | > 100 µM |  |  |  |  |  |  |  |  |  |  |  | 
6 | Nc1ccccc1S(=O)(=O)N(CC(=O)O)c1ccccc1 | > 100 µM | > 100 µM | > 100 µM | > 100 µM | > 100 µM | > 100 µM | > 100 µM | > 100 µM |  |  |  |  |  |  |  |  |  |  |  | 
7 | COc1cc2c(cc1OCCCCN1CCN(CC(=O)Nc3ccc(Cl)cc3C(=O)c3ccccc3Cl)CC1)N=CC1CCCN1C2=O (centres undefined) | 0.962 µM | 0.817 µM | 0.355 µM | 0.575 µM | 1.04 µM | 0.453 µM | 0.519 µM | 1.15 µM |  | 0.262 µM | 0.267 µM | 0.186 µM | 0.2 | 0.25 µM | 0.229 | 0.229 µM | 0.36 µM |  |  | 
8 | Cc1ccc(NC(=O)Nc2ccc(-c3cccnc3)cc2N2CCC(CO)CC2)cc1 | > 100 µM |  | 6.18 µM | 9.61 µM | 9.93 µM | 5.42 µM | > 100 µM | > 100 µM | 6.4 | 3.53 µM |  | 2.3 µM | 2.14 | 1.47 µM | 1.49 | 8.44 µM | 2.64 µM | 1.7 µM | 3.62 µM | > 100 µM
9 | NC(=O)NO.O.O.O.O.O.O.O.O.O.O.O.[Ge].[Ge].[Ge].[Ge].[Ge].[O]=[Ge].[O]=[Ge].[O]=[Ge].[O]=[Ge].[O]=[Ge][OH] | > 100 µM | > 100 µM | 53.5 µM | > 100 µM | > 100 µM | > 100 µM | > 100 µM | > 100 µM |  |  |  |  |  |  |  |  |  |  |  | 
10 | COC(=O)C1(C(C)C)CCc2c(OC)ccc(OC)c2C1=O (centres undefined) | > 100 µM | > 100 µM | > 100 µM | > 100 µM | > 100 µM | > 100 µM | > 100 µM | > 100 µM |  |  |  |  |  |  |  |  |  |  |  | 
11 | CCC[CH2][Sn]([CH2]CCC)([S]c1cccc2cccnc12)[S]c1cccc2cccnc12 | 0.307 µM | 0.345 µM | 0.959 µM |  | 0.335 µM | 0.472 µM | 0.53 µM | 1.39 µM |  | 0.135 µM | 0.189 µM | 0.279 µM |  | 0.138 µM | 0.16 | 0.224 µM | 0.373 µM |  |  | 
12 | CC1(C(=O)O)CCC[C@@]2(C)C1CC[C@@]1(C)c3cocc3CCC21 (some centres undefined) | > 100 µM | > 100 µM | > 100 µM | > 100 µM | > 100 µM | > 100 µM | > 100 µM | > 100 µM |  |  |  |  |  |  |  |  |  |  |  | 
13 | O=[N+]([O-])c1cccc(-c2csc(NNC3=NC/C(=C/c4ccc5c(c4)OCO5)S3)n2)c1 | > 100 µM | 85.6 µM | 56.5 µM | > 100 µM | 65.4 µM |  | 47.4 µM | 64.8 µM | 69.7 |  |  |  |  |  |  |  |  |  |  | 53 µM
14 | CCCCCCCCCCCCCC(=O)OC(/C=C/C(C)C)C(O)C(O)C(OC)C(=O)NC1CCCCN(C)C1=O (centres undefined) | 7.57 µM and > 49 µM | 5.25 µM and > 49 µM | 6.15 µM and > 49 µM | 18.3 µM and > 49 µM | 7.01 µM and > 49 µM | 7.64 µM and > 49 µM | 5.9 µM and > 49 µM | 6.46 µM and > 49 µM |  |  | > 49 µM |  | > 49 |  | > 49 |  | > 49 µM |  |  | 
15 | C1=C2/CC[C@H](Sc3ccccc3)C2C2(CCCCC/1)OCCO2 (some centres undefined) |  |  | 64.5 µM | 45.2 µM | 28 µM | > 100 µM | > 100 µM | > 100 µM |  |  |  |  |  |  |  |  |  |  |  | 
16 | CO/C(=N\N=C\c1ccc(C(F)(F)F)cc1)c1ccncc1 | > 10 µM | > 10 µM |  | > 10 µM | > 10 µM |  |  | > 10 µM |  |  |  |  |  |  |  |  |  |  |  | > 10 µM
17 | O=C(CCNC12CC3CC(CC(C3)C1)C2)c1ccccc1 | > 100 µM | 77.6 µM | 39.6 µM | 49.4 µM | 23.6 µM | 75.4 µM | 55.4 µM | > 100 µM |  |  |  |  |  |  |  |  |  |  |  | 59.8 µM
18 | O=C(CCc1nc(=S)[nH][nH]1)Nc1ccc(Cl)c(Cl)c1 | > 100 µM | > 100 µM | 22 µM | > 100 µM | > 100 µM | > 100 µM | > 100 µM | > 100 µM |  |  |  |  |  |  |  |  |  |  |  | 
19 | COc1cc2cc(OC)c3cc4c(cc3c2c(OC)c1OC)OCO4 | > 100 µM | > 67.8 µM | > 64.4 µM | > 100 µM | 30.7 µM | > 57.6 µM | > 100 µM | > 100 µM |  |  |  |  |  |  |  |  |  |  |  | 
20 | OCC1=CC(NC2CC(CO)C(O)C(O)C2O)C(O)C(O)C1O (centres undefined) |  | > 100 µM | > 100 µM | > 100 µM | > 100 µM | > 100 µM | > 100 µM | > 100 µM |  |  |  |  |  |  |  |  |  |  |  | 
21 | COC(=O)/C(C#N)=C1\NC(=O)c2ccccc21 | > 100 µM | > 100 µM | > 100 µM | > 100 µM | > 100 µM | > 100 µM | > 100 µM | > 100 µM |  |  |  |  |  |  |  |  |  |  |  | 
22 | C[C@@H](Oc1cc(-n2cnc3ccc(CN4CCN(C)CC4)cc32)sc1C(N)=O)c1ccccc1C(F)(F)F | 17.5 µM and > 10 µM | 16.6 µM and > 10 µM | 16.7 µM and > 10 µM | > 10 µM | 6.51 µM and > 10 µM |  | 15.1 µM and > 10 µM | 15.4 µM and > 10 µM | 2.53 | 0.817 µM and 0.98 µM | 1.67 µM and 0.776 µM | 0.0326 µM and 0.0382 µM | 2.03 | < 0.01 µM and 0.00402 µM |  | 0.0621 µM and 0.0336 µM | 0.0233 µM and 0.0162 µM | 0.0853 µM and 0.035 µM | 0.162 µM and 0.2 µM | 14.3 µM and > 10 µM
